The subject of the assay is PC12 cells stably transfected with RAGE and transiently transfected with mutant presenilin-2 (N141 mutant). The assay is described as follows: TUNEL apoptosis assay in transfected PC12 cells exposed to Aβ. It counts as cell-based. The settings on record: Aβ 0.3 and 1 μM, 24 hrs; cells co-transfected to express mutant presenilin-2 and RAGE. The method, then: Induction of apoptosis. For apoptosis studies, PC12 cultures, either mock-transfected (control), stably transfected with the RAGE-bearing construct or stably transfected with the RAGE-bearing construct and transiently transfected with the mutant presenilin-2 bearing construct, and were then exposed to Aβ (0.3 or 1 μM) for 24 hrs. At the end of this time, apoptosis was determined using the TUNEL assay by counting positively staining nuclei per twenty high-power fields. Under these conditions, mutant presenilin-2 by itself has little effect on apoptosis, as shown previously (FIG. 3).
Generation of Stable Transfected Cells. PC12 cells, grown as described and transfected with pcDNA3-RAGE (the latter comprised of the human RAGE cDNA) (Yan, et al., 1996) using lipofectamine (12 μg/ml) according to the manufacturer's instructions (Gibco-BRL). Cells were maintained in the presence of G418. Transient transfection was performed with a vector including mutant presenilin-2 (N141 mutant) (Wolozin et al., 1996), using lipofectamine, as described (Wolozin et al., 1996). Immunoblotting and immunostaining of PC12 cells for RAGE was performed as described previously (Yan, et al., 1996).
Apoptosis assay. The terminal deoxynucleotidyl transferase-mediated dUTP nick end labeling (TUNEL) assay was performed as described using a kit from Travigen, a peroxide-based TACS-TdTkit (Woolozin, et al., 1996). […]

With “Aβ: Aβ (comprised of residues 1-42), synthesized, HPLC purified, purchased from a commercial supplier”, the “apoptosis (TUNEL, positively staining nuclei per twenty high-power fields)” value is “dramatic increase in apoptosis”.

Source of the values: US20030037344A1, “METHOD FOR EVALUATING THE ABILITY OF A COMPOUND TO INHIBIT NEUROTOXICITY” (priority 1997, published 2003).
